Assay results taken from ChEMBL document CHEMBL1201862, “PubChem BioAssay data set” (2004).
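Method: 48-hour compound exposure of cells in 96-well plates, five concentrations, linear interpolation of endpoints. At the GI50, growth is halved.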 Calls of active or inactive are those of the source. Cut-off read from the data, not from the text of the source: active = GI50 up to about 1.1 µM and inactive = higher.

Legend:
Test in all cases: DTP human tumour cell line panel, 48 h
HOP-18 = test system: HOP-18
DMS-114 = test system: DMS-114
OVCAR-3 = test system: OVCAR-3
ACHN = test system: ACHN
A549 = test system: A549
Malme-3M = test system: Malme-3M
SNB-19 = test system: SNB-19
SN12C = test system: SN12C
SW-620 = test system: SW-620
EKVX = test system: EKVX
NCI-H460 = test system: NCI-H460
NCI-H522 = test system: NCI-H522
RXF 393 = test system: RXF 393
CAKI-1 = test system: CAKI-1
HCC 2998 = test system: HCC 2998
OVCAR-5 = test system: OVCAR-5
OVCAR-8 = test system: OVCAR-8
MOLT-4 = test system: MOLT-4
M14 = test system: M14
TK-10 = test system: TK-10
786-0 = test system: 786-0
UACC-62 = test system: UACC-62
SK-OV-3 = test system: SK-OV-3
U-251 = test system: U-251
OVCAR-4 = test system: OVCAR-4
UACC-257 = test system: UACC-257
HT-29 = test system: HT-29
NCI-H23 = test system: NCI-H23
SK-MEL-5 = test system: SK-MEL-5
XF498 = test system: XF498
UO-31 = test system: UO-31
KM12 = test system: KM12
LXFL 529 = test system: LXFL 529
HOP-92 = test system: HOP-92
RPMI-8226 = test system: RPMI-8226
IGROV-1 = test system: IGROV-1
HCT-15 = test system: HCT-15
SNB-78 = test system: SNB-78
KM-20L2 = test system: KM-20L2
SNB-75 = test system: SNB-75
SF-295 = test system: SF-295
HCT-116 = test system: HCT-116
SK-MEL-28 = test system: SK-MEL-28
COLO 205 = test system: COLO 205
SR = test system: SR
K562 = test system: K562
NCI-H226 = test system: NCI-H226
SK-MEL-2 = test system: SK-MEL-2
SF-268 = test system: SF-268
DMS-273 = test system: DMS-273
DLD-1 = test system: DLD-1
HL-60 = test system: HL-60
SF-539 = test system: SF-539
CCRF-CEM = test system: CCRF-CEM
M19-MEL = test system: M19-MEL
HOP-62 = test system: HOP-62
A498 = test system: A498
LOX IMVI = test system: LOX IMVI

Compound: COC1OC(COCc2ccc(Cl)cc2)C(OCc2ccc(Cl)cc2)C1N=[N+]=[N-] (stereo not drawn)
- GI50 (HOP-18): > 100 µM (inactive)
- GI50 (DMS-114): 24.2 µM (inactive)
- GI50 (OVCAR-3): 47.8 µM (inactive)
- GI50 (ACHN): > 100 µM (inactive)
- GI50 (A549): 4.32 µM (inactive)
- GI50 (Malme-3M): > 100 µM (inactive)
- GI50 (SNB-19): > 100 µM (inactive)
- GI50 (SN12C): > 100 µM (inactive)
- GI50 (SW-620): > 100 µM (inactive)
- GI50 (EKVX): > 100 µM (inactive)
- GI50 (NCI-H460): > 100 µM (inactive)
- GI50 (NCI-H522): 85.1 µM (inactive)
- GI50 (RXF 393): 27.1 µM (inactive)
- GI50 (CAKI-1): > 100 µM (inactive)
- GI50 (HCC 2998): > 100 µM (inactive)
- GI50 (OVCAR-5): > 100 µM (inactive)
- GI50 (OVCAR-8): > 100 µM (inactive)
- GI50 (MOLT-4): 42.2 µM (inactive)
- GI50 (M14): > 100 µM (inactive)
- GI50 (TK-10): > 100 µM (inactive)
- GI50 (786-0): 4.7 µM (inactive)
- GI50 (UACC-62): 15.3 µM (inactive)
- GI50 (SK-OV-3): > 100 µM (inactive)
- GI50 (U-251): > 100 µM (inactive)
- GI50 (OVCAR-4): > 100 µM (inactive)
- GI50 (UACC-257): 81.7 µM (inactive)
- GI50 (HT-29): > 100 µM (inactive)
- GI50 (NCI-H23): 45.1 µM (inactive)
- GI50 (SK-MEL-5): 44 µM (inactive)
- GI50 (XF498): > 100 µM (inactive)
- GI50 (UO-31): > 100 µM (inactive)
- GI50 (KM12): > 100 µM (inactive)
- GI50 (LXFL 529): 95.5 µM (inactive)
- GI50 (HOP-92): 97.1 µM (inactive)
- GI50 (RPMI-8226): 19.4 µM (inactive)
- GI50 (IGROV-1): 72.3 µM (inactive)
- GI50 (HCT-15): > 100 µM
- GI50 (SNB-78): > 100 µM (inactive)
- GI50 (KM-20L2): 8 µM (inactive)
- GI50 (SNB-75): 73.5 µM (inactive)
- GI50 (SF-295): > 100 µM (inactive)
- GI50 (HCT-116): > 100 µM (inactive)
- GI50 (SK-MEL-28): > 100 µM (inactive)
- GI50 (COLO 205): > 100 µM (inactive)
- GI50 (SR): 36.2 µM (inactive)
- GI50 (K562): 49.8 µM (inactive)
- GI50 (NCI-H226): > 100 µM (inactive)
- GI50 (SK-MEL-2): > 100 µM (inactive)

Compound: CCCCCCCC(=O)OC[C@@H](C[As](=O)(O)O)OC(=O)CCCCCCC
- GI50 (HOP-18): 18.2 µM (inactive)
- GI50 (DMS-114): 10.4 µM (inactive)
- GI50 (ACHN): 12.7 µM (inactive)
- GI50 (A549): 3.73 µM (inactive)
- GI50 (Malme-3M): 14.1 µM (inactive)
- GI50 (SNB-19): 14.2 µM (inactive)
- GI50 (SN12C): 11.2 µM (inactive)
- GI50 (SF-268): 5.85 µM (inactive)
- GI50 (SW-620): 12.9 µM (inactive)
- GI50 (EKVX): 26.5 µM (inactive)
- GI50 (DMS-273): 12.1 µM (inactive)
- GI50 (NCI-H522): 1.56 µM (inactive)
- GI50 (DLD-1): 13.6 µM (inactive)
- GI50 (RXF 393): 4.97 µM (inactive)
- GI50 (HL-60): 2.98 µM (inactive)
- GI50 (HCC 2998): 15.7 µM (inactive)
- GI50 (OVCAR-8): 13.5 µM (inactive)
- GI50 (MOLT-4): 2.58 µM (inactive)
- GI50 (SF-539): 10.5 µM (inactive)
- GI50 (M14): 14.9 µM (inactive)
- GI50 (CCRF-CEM): 1.88 µM (inactive)
- GI50 (M19-MEL): 14.9 µM (inactive)
- GI50 (786-0): 12.1 µM (inactive)
- GI50 (UACC-62): 11.3 µM (inactive)
- GI50 (SK-OV-3): 14.6 µM (inactive)
- GI50 (U-251): 5.74 µM (inactive)
- GI50 (OVCAR-4): 11.9 µM (inactive)
- GI50 (UACC-257): 16.4 µM (inactive)
- GI50 (HT-29): 14.1 µM (inactive)
- GI50 (NCI-H23): 12.9 µM (inactive)
- GI50 (SK-MEL-5): 13.9 µM (inactive)
- GI50 (UO-31): 2.59 µM (inactive)
- GI50 (LXFL 529): 11.9 µM (inactive)
- GI50 (HOP-92): 17.2 µM (inactive)
- GI50 (RPMI-8226): 10.3 µM (inactive)
- GI50 (IGROV-1): 5.21 µM (inactive)
- GI50 (HCT-15): 10.1 µM
- GI50 (SNB-78): 10.4 µM (inactive)
- GI50 (KM-20L2): 16.9 µM (inactive)
- GI50 (HOP-62): 18.7 µM (inactive)
- GI50 (SNB-75): 11.5 µM (inactive)
- GI50 (A498): 11.2 µM (inactive)
- GI50 (SF-295): 15.1 µM (inactive)
- GI50 (HCT-116): 10.6 µM (inactive)
- GI50 (SK-MEL-28): 13.5 µM (inactive)
- GI50 (COLO 205): 17.8 µM (inactive)
- GI50 (SR): 4.95 µM (inactive)
- GI50 (K562): 13.8 µM (inactive)
- GI50 (NCI-H226): 6.58 µM (inactive)

Compound: CCc1cccc(C(C)CC)c1NC(=O)C(=O)Cc1nc2ccccc2o1 (stereo not drawn)
- GI50 (DMS-114): > 50 µM (inactive)
- GI50 (OVCAR-3): > 50 µM (inactive)
- GI50 (ACHN): > 50 µM (inactive)
- GI50 (A549): > 50 µM (inactive)
- GI50 (Malme-3M): > 50 µM (inactive)
- GI50 (SNB-19): > 50 µM (inactive)
- GI50 (SN12C): > 50 µM (inactive)
- GI50 (SF-268): > 50 µM (inactive)
- GI50 (SW-620): > 50 µM (inactive)
- GI50 (EKVX): > 50 µM (inactive)
- GI50 (NCI-H460): > 50 µM (inactive)
- GI50 (DMS-273): > 50 µM (inactive)
- GI50 (NCI-H522): > 50 µM (inactive)
- GI50 (DLD-1): > 50 µM (inactive)
- GI50 (RXF 393): > 50 µM (inactive)
- GI50 (HL-60): > 50 µM (inactive)
- GI50 (CAKI-1): > 50 µM (inactive)
- GI50 (HCC 2998): > 50 µM (inactive)
- GI50 (OVCAR-5): > 43.8 µM (inactive)
- GI50 (OVCAR-8): > 50 µM (inactive)
- GI50 (MOLT-4): > 34.5 µM (inactive)
- GI50 (SF-539): > 50 µM (inactive)
- GI50 (M14): > 50 µM (inactive)
- GI50 (CCRF-CEM): > 50 µM (inactive)
- GI50 (TK-10): > 50 µM (inactive)
- GI50 (LOX IMVI): > 50 µM (inactive)
- GI50 (M19-MEL): > 50 µM (inactive)
- GI50 (786-0): > 50 µM (inactive)
- GI50 (UACC-62): > 50 µM (inactive)
- GI50 (SK-OV-3): > 50 µM (inactive)
- GI50 (U-251): > 50 µM (inactive)
- GI50 (OVCAR-4): > 50 µM (inactive)
- GI50 (UACC-257): > 50 µM (inactive)
- GI50 (HT-29): > 50 µM (inactive)
- GI50 (NCI-H23): > 50 µM (inactive)
- GI50 (SK-MEL-5): > 50 µM (inactive)
- GI50 (XF498): > 50 µM (inactive)
- GI50 (UO-31): > 50 µM (inactive)
- GI50 (KM12): > 50 µM (inactive)
- GI50 (LXFL 529): > 50 µM (inactive)
- GI50 (HOP-92): > 50 µM (inactive)
- GI50 (RPMI-8226): > 50 µM (inactive)
- GI50 (IGROV-1): > 50 µM (inactive)
- GI50 (HCT-15): > 50 µM
- GI50 (SNB-78): > 50 µM (inactive)
- GI50 (KM-20L2): > 50 µM (inactive)
- GI50 (HOP-62): > 50 µM (inactive)
- GI50 (SNB-75): > 50 µM (inactive)
- GI50 (A498): > 50 µM (inactive)
- GI50 (SF-295): > 50 µM (inactive)
- GI50 (HCT-116): > 50 µM (inactive)
- GI50 (SK-MEL-28): > 50 µM (inactive)
- GI50 (COLO 205): > 50 µM (inactive)
- GI50 (K562): > 50 µM (inactive)
- GI50 (NCI-H226): 3.82 µM (inactive)
- GI50 (SK-MEL-2): > 50 µM (inactive)
